Results published in PubChem BioAssay AID330 (DTP/NCI, 2004).
Values joined by “and” are separate entries in the source; they are usually repeats but may differ in a detail not shown here. Identical values can stand only once. Toxic doses and inconclusive results are not listed.

Tested on: P388 leukemia ip, CD2F1 mice, survival T/C
Assay: NCI In Vivo Anticancer Drug Screen. Data for tumor model P388 Leukemia (intraperitoneal) in CD2F1 (CDF1) mice
Settings: endpoint: median survival time, higher = longer survival
How it was run: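 Mice carrying the transplanted tumor received test compound or vehicle. Survival was recorded in each group, and the value is the treated-group measurement divided by that of the vehicle-treated control group.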

[1] = dose: 100.0 mg/kg/injection, schedule: Q01DX009 (ip), vehicle: saline with Tween-80
[2] = dose: 200.0 mg/kg/injection, schedule: Q01DX009 (ip), vehicle: saline with Tween-80
[3] = dose: 50.0 mg/kg/injection, schedule: Q01DX005 (ip), vehicle: saline with Tween-80
[4] = dose: 100.0 mg/kg/injection, schedule: Q01DX005 (ip), vehicle: saline with Tween-80
[5] = dose: 200.0 mg/kg/injection, schedule: Q01DX005 (ip), vehicle: saline with Tween-80
[6] = dose: 50.0 mg/kg/injection, schedule: Q01DX005 (ip), vehicle: Klucel (hydroxypropylcellulose) (HPC)
[7] = dose: 100.0 mg/kg/injection, schedule: Q01DX005 (ip), vehicle: Klucel (hydroxypropylcellulose) (HPC)
[8] = dose: 200.0 mg/kg/injection, schedule: Q01DX005 (ip), vehicle: Klucel (hydroxypropylcellulose) (HPC)
[9] = dose: 25.0 mg/kg/injection, schedule: Q04DX003 (ip), vehicle: saline with Tween-80
[10] = dose: 50.0 mg/kg/injection, schedule: Q04DX003 (ip), vehicle: saline with Tween-80
[11] = dose: 100.0 mg/kg/injection, schedule: Q04DX003 (ip), vehicle: saline with Tween-80
[12] = dose: 400.0 mg/kg/injection, schedule: Q04DX003 (ip), vehicle: saline with Tween-80
[13] = dose: 50.0 mg/kg/injection, schedule: Q01DX009 (ip), vehicle: Klucel (hydroxypropylcellulose) (HPC)
[14] = dose: 100.0 mg/kg/injection, schedule: Q01DX009 (ip), vehicle: Klucel (hydroxypropylcellulose) (HPC)
[15] = dose: 200.0 mg/kg/injection, schedule: Q01DX009 (ip), vehicle: Klucel (hydroxypropylcellulose) (HPC)
[16] = dose: 200.0 mg/kg/injection, schedule: Q04DX003 (ip), vehicle: saline with Tween-80

CCN(CC)c1ccc(/C=C2/C=Cc3ccccc32)cc1
T/C [1]: 105 % of control | T/C [2]: 100 % of control | T/C (dose: 400.0 mg/kg/injection, schedule: Q01DX009 (ip), vehicle: saline with Tween-80): 95 % of control

NC(=S)N/N=C/c1cc(Cl)sc1Cl
T/C [3]: 102 % of control | T/C [4]: 98 % of control | T/C [5]: 96 % of control

CC(=O)N(C(C)=O)/C(=C/c1cn(C(C)=O)c2ccccc12)C(=O)c1ccc(C)cc1
T/C (dose: 100.0 mg/kg/injection, schedule: Q01DX001 (ip), vehicle: saline with Tween-80): 105 % of control | T/C (dose: 200.0 mg/kg/injection, schedule: Q01DX001 (ip), vehicle: saline with Tween-80): 104 % of control | T/C (dose: 400.0 mg/kg/injection, schedule: Q01DX001 (ip), vehicle: saline with Tween-80): 98 % of control

CCC1(C)C(=O)SC(=S)N1C (centres undefined)
T/C [6]: 101 % of control | T/C [7]: 97 % of control | T/C [8]: 103 % of control

O=[N+]([O-])c1cccc2nc(Cl)ccc12
T/C (dose: 25.0 mg/kg/injection, schedule: Q01DX009 (ip), vehicle: other): 93 % of control | T/C (dose: 50.0 mg/kg/injection, schedule: Q01DX009 (ip), vehicle: other): 93 % of control | T/C (dose: 100.0 mg/kg/injection, schedule: Q01DX009 (ip), vehicle: other): 98 % of control

O=C(c1ccccc1)C(C(=O)c1ccccc1)C(c1ccccc1)(c1ccccc1)c1ccccc1
T/C (dose: 12.5 mg/kg/injection, schedule: Q04DX003 (ip), vehicle: saline with Tween-80): 97 % of control | T/C [9]: 99 % of control and 98 % of control | T/C [10]: 87 % of control | T/C [11]: 90 % of control and 91 % of control | T/C [12]: 88 % of control

Nc1ccc2ccccc2c1[N+](=O)[O-]
T/C [13]: 105 % of control | T/C [14]: 102 % of control | T/C [15]: 113 % of control

ICC1CCCCC1CI (centres undefined)
T/C [3]: 106 % of control | T/C [4]: 99 % of control | T/C [5]: 104 % of control

N=C(N)CCCCCCCCC(=N)N
T/C (dose: 0.78 mg/kg/injection, schedule: Q01DX009 (ip), vehicle: saline): 98 % of control and 111 % of control and 118 % of control | T/C (dose: 1.5 mg/kg/injection, schedule: Q01DX009 (ip), vehicle: saline): 116 % of control | T/C (dose: 1.56 mg/kg/injection, schedule: Q01DX009 (ip), vehicle: saline): 112 % of control and 114 % of control | T/C (dose: 6.25 mg/kg/injection, schedule: Q01DX009 (ip), vehicle: saline): 123 % of control | T/C (dose: 12.5 mg/kg/injection, schedule: Q01DX009 (ip), vehicle: saline): 107 % of control and 116 % of control and 119 % of control

COC1=CC(=O)C(C#CCOCc2ccccc2)=CC1=O
T/C (dose: 7.5 mg/kg/injection, schedule: Q01DX005 (ip), vehicle: Klucel (hydroxypropylcellulose) (HPC)): 100 % of control | T/C (dose: 15.0 mg/kg/injection, schedule: Q01DX005 (ip), vehicle: Klucel (hydroxypropylcellulose) (HPC)): 102 % of control | T/C (dose: 30.0 mg/kg/injection, schedule: Q01DX005 (ip), vehicle: Klucel (hydroxypropylcellulose) (HPC)): 105 % of control

O=C(O)Cc1cn2cccnc2n1
T/C (dose: 50.0 mg/kg/injection, schedule: Q04DX002 (ip), vehicle: saline with Tween-80): 115 % of control | T/C (dose: 100.0 mg/kg/injection, schedule: Q04DX002 (ip), vehicle: saline with Tween-80): 99 % of control | T/C (dose: 200.0 mg/kg/injection, schedule: Q04DX002 (ip), vehicle: saline with Tween-80): 96 % of control

COc1ccc(NP2(=O)N(Cc3ccc(Cl)cc3)CCCN2Cc2ccc(Cl)cc2)cc1
T/C [6]: 100 % of control | T/C [7]: 88 % of control

COc1ccc(C=NCCN=Cc2ccc(OC)cc2)cc1
T/C [9]: 100 % of control | T/C [10]: 109 % of control | T/C [11]: 108 % of control | T/C [16]: 110 % of control

Cc1ccc(S(=O)(=O)N/N=C2\COC(C)C2)cc1 (centres undefined)
T/C [3]: 93 % of control | T/C [4]: 91 % of control

CN(C)/C=C1\C(C(C)(C)C)=CC(C(C)(C)C)=C1N=O
T/C (dose: 60.0 mg/kg/injection, schedule: Q01DX005 (ip), vehicle: Klucel (hydroxypropylcellulose) (HPC)): 105 % of control | T/C (dose: 120.0 mg/kg/injection, schedule: Q01DX005 (ip), vehicle: Klucel (hydroxypropylcellulose) (HPC)): 104 % of control

Cc1nc2cc3c(cc2n2cccc12)oc1ccccc13
T/C (dose: 25.0 mg/kg/injection, schedule: Q01DX005 (ip), vehicle: Klucel (hydroxypropylcellulose) (HPC)): 88 % of control | T/C [6]: 96 % of control | T/C [7]: 86 % of control

Cc1ccc(S(=O)(=O)C(Cl)(SOCc2ccccc2)Sc2ccccc2)cc1 (centres undefined)
T/C [13]: 109 % of control | T/C [14]: 100 % of control | T/C [15]: 114 % of control

Cc1cccc(Nc2nc(C)nc3[nH]cc(-c4ccccc4)c23)c1
T/C (dose: 6.25 mg/kg/injection, schedule: Q01DX005 (ip), vehicle: Klucel (hydroxypropylcellulose) (HPC)): 91 % of control | T/C (dose: 12.5 mg/kg/injection, schedule: Q01DX005 (ip), vehicle: Klucel (hydroxypropylcellulose) (HPC)): 90 % of control | T/C [8]: 88 % of control

CCOC(=O)CC(=O)NCCc1cccc(OC)c1OC
T/C (dose: 100.0 mg/kg/injection, schedule: Q04DX003 (ip), vehicle: other): 100 % of control | T/C (dose: 200.0 mg/kg/injection, schedule: Q04DX003 (ip), vehicle: other): 100 % of control | T/C (dose: 400.0 mg/kg/injection, schedule: Q04DX003 (ip), vehicle: other): 105 % of control

CCCCCC(O)CCCCC
T/C [11]: 100 % of control | T/C [16]: 109 % of control | T/C [12]: 100 % of control

CC(=O)OC1CC2CCC1(/C=C/C(=O)c1ccccc1)C2 (centres undefined)
T/C (dose: 50.0 mg/kg/injection, schedule: Q01DX009 (ip), vehicle: saline with Tween-80): 100 % of control | T/C [1]: 100 % of control | T/C [2]: 113 % of control

O=C1Nc2cc3c(cc2C(=O)N2C/C(=N/O)CC12)OCO3 (centres undefined)
T/C [3]: 107 % of control | T/C [4]: 99 % of control | T/C [5]: 101 % of control

CCCCNC(=O)C1CC2c3cccc4c3c(cn4C)CC2N(C)C1 (centres undefined)
T/C (dose: 25.0 mg/kg/injection, schedule: Q01DX001 (ip), vehicle: saline): 102 % of control | T/C (dose: 50.0 mg/kg/injection, schedule: Q01DX001 (ip), vehicle: saline): 105 % of control

CCN(CC)CCCC(C)Nc1nccc2cccc(Cl)c12 (centres undefined)
T/C (dose: 50.0 mg/kg/injection, schedule: Q01DX005 (ip), vehicle: saline): 104 % of control | T/C (dose: 100.0 mg/kg/injection, schedule: Q01DX005 (ip), vehicle: saline): 104 % of control

Nc1nc(N)c2nc(CNc3ccc(Cl)c(Cl)c3)cnc2n1
T/C (dose: 15.0 mg/kg/injection, schedule: Q01DX005 (ip), vehicle: saline with Tween-80): 98 % of control | T/C (dose: 30.0 mg/kg/injection, schedule: Q01DX005 (ip), vehicle: saline with Tween-80): 89 % of control

CCCCCCCCCCCCCCCCCC(=O)OCC(=O)OCC(=O)[C@]1(O)Cc2c(O)c3c(c(O)c2[C@@H](OC2CC(N)C(O)C(C)O2)C1)C(=O)c1c(OC)cccc1C3=O (some centres undefined)
T/C (dose: 0.39 mg/kg/injection, schedule: Q01DX009 (ip), vehicle: water): 150 % of control | T/C (dose: 0.78 mg/kg/injection, schedule: Q01DX009 (ip), vehicle: water): 157 % of control | T/C (dose: 1.56 mg/kg/injection, schedule: Q01DX009 (ip), vehicle: water): 180 % of control and 194 % of control | T/C (dose: 3.13 mg/kg/injection, schedule: Q01DX009 (ip), vehicle: water): 200 % of control and 203 % of control | T/C (dose: 6.25 mg/kg/injection, schedule: Q01DX009 (ip), vehicle: water): 93 % of control and 98 % of control

FC(F)(F)c1ccccc1NC(=S)SCc1ccco1
T/C (dose: 50.0 mg/kg/injection, schedule: Q01DX009 (ip), vehicle: suspension in saline): 93 % of control | T/C (dose: 100.0 mg/kg/injection, schedule: Q01DX009 (ip), vehicle: suspension in saline): 93 % of control

Oc1ccccc1/C=N/Nc1nnnn1-c1ccccc1
T/C (dose: 100.0 mg/kg/injection, schedule: Q01DX001 (ip), vehicle: Klucel (hydroxypropylcellulose) (HPC)): 102 % of control | T/C (dose: 200.0 mg/kg/injection, schedule: Q01DX001 (ip), vehicle: Klucel (hydroxypropylcellulose) (HPC)): 102 % of control | T/C (dose: 400.0 mg/kg/injection, schedule: Q01DX001 (ip), vehicle: Klucel (hydroxypropylcellulose) (HPC)): 98 % of control
